Reference: patent US8022075B2, “Diagnostic and remedy for disease caused by amyloid aggregation and/or deposition” (Fujifilm Ri Pharma Co., Ltd., priority 2005, dated 2011)
Like-named read-outs stand apart in the source and are kept apart here.

Legend:
Amyloid β (1-40) peptide [1] = biological target: T1, Amyloid β (1-40) peptide (Homo sapiens, UniProt P05067); assay: Inhibitory activity on formation of amyloid from amyloid β protein (thioflavin T method); format: biochemical; conditions: amyloid β (1-40) 15 μmol/L, PBS(−), room temperature, one day; read-out: Aggregation inhibitory activity IC50 A β 1-40
T1 construct: amyloid β (1-40) peptide hydrochloric acid salt; host or cells: chemically synthesised peptide
Description: Amyloid β (1-40) peptide hydrochloric acid salt (product of PEPTIDE […], INC.) (15 μmol/L) and a test substance (1.6, 8, or 40 μmol/L) were incubated in PBS(−) at room temperature for one day. Thereafter, the amount of formed amyloid was measured through the thioflavin T method. […] As is clear from table 3, aggregation of amyloid β (1-40) can be prevented by the compound of the present invention.

[2] = biological target: synthetic amyloid β (1-40) aggregates (Homo sapiens, UniProt P05067); assay: Inhibition of binding of compound 23 to amyloid β protein aggregates; set-up: amyloid β (1-40) peptide hydrochloric acid salt; host or cells: chemically synthesised peptide; conditions: binding of 125I-labeled compound 23 to A β 1-40 aggregates, room temperature, three hours
Description: Synthetic A β peptides in a solution form undergo spontaneous aggregation in a test tube, to thereby form aggregates having the same β-sheet structure as that of amyloid aggregates present in a brain suffering from Alzheimer's disease (hereinafter, such a brain is referred to as an “Alzheimer brain”).
After ultrasonication, the mixture was gently stirred at 37° C. for four days, to thereby produce synthetic amyloid β (1-40) aggregates.
Binding test was performed in the following manner. Firstly, PBS (500 μL) and 0.2% BSA/PBS solution (100 μL) were added to test tubes. […] Reaction was initiated by adding a synthetic amyloid β (1-40) aggregates solution (concentration: 500 nmol/L, adjusted by PBS) (200 μL) to each test tube.
These samples were incubated at room temperature for three hours, and each reaction mixture was filtered by means of a cell harvester (M-24R, product of Brandel) by use of a Whatman GF/B filter (product of Whatman). The filter was washed thrice with ice-cooled PBS solution (about 2 mL) containing 0.1-mmol/L ascorbic acid.
Activity values were calculated by means of a GraphPad Prism Ver.

[3] = biological target: T2, amyloid β (1-40) aggregates formed in PBS and in MES (Homo sapiens, UniProt P05067); assay: Correlation of β sheet amount in aggregates to binding amount of compound 23; conditions: mixtures of PBS aggregates and MES aggregates (FIG. 4)
T2 construct: amyloid β (1-40) peptide hydrochloric acid salt; host or cells: chemically synthesised peptide
Description: In order to confirm that binding of compound 23 is promoted in accordance with the β-sheet structure amount, binding amount was compared among amyloid β aggregates having different β-sheet contents.
It has already reported by Wood et al. that amyloid β (1-40) aggregated in an acidic medium assumes large aggregates having a small β-sheet structure content, and that the structure is unchanged even in a neutral pH medium (Wood S. J., J. Mol. Biol. 256(5): 870-877). According to this report, synthetic amyloid β (1-40) aggregates were prepared in PBS in a manner similar to that of Test Example 2, and such aggregates were also prepared in MES (2-morpholinoethansulfonate) buffer in a similar manner.
These samples were further diluted with PBS to 40 μmol/L. Also a PBS aggregates sample and a MES aggregates sample were diluted with PBS to 40 μmol/L respectively.
The β-sheet content of aggregate mixture samples was determined through the thioflavin T method.
The binding amount of compound 23 to an aggregate mixture (aggregates formed in PBS and those formed in MES) was determined in a manner similar to that of Test Example 5 (binding to amyloid).

[4] = biological target: Whole protein of human Alzheimer lesion origin (temporal cortex) (Homo sapiens, UniProt P05067); assay: Calculation of binding affinity by use of Alzheimer brain; conditions: Alzheimer brain homogenate
Description: Whole protein of human Alzheimer lesion origin (temporal cortex), a commercial product of Biochain (US), was employed.
An Alzheimer brain homogenate diluted with PBS was added to each test tube, to thereby initiate reaction.
4.00 (GraphPad Software, Inc.), to thereby calculate binding parameters (Kd, Bmax).

[5] = Distribution in rat body (radioactivity in the brain); format: in vivo, Wistar male rats; conditions: caudal vein
Description: Wistar male rats (purchased from Japan SLC, Inc.) were conditioned for seven days, maintaining water and chow (commercial solid chow: F-2, product of Funabashi Farm) ad libitum, and the non-fasting rats were employed in the experiment (8-week-old at experiment).
Each of compound 23, compound 24, and [^125I]-IMPY was dissolved in a solution containing 40 mM ascorbic acid and 0.1% Tween80, to thereby adjust the concentration to 100 μCi/200 μL. Each sample was administered to each rat through the caudal vein under non-anesthetization. […] The brain was cut into the left and right parts, and each part was weighed. The right brain was placed in a vial, and radioactivity was measured by means of a gamma counter. The radioactivity relative to the administration amount was calculated. Specifically, radioactivity of the tissue and that divided by the tissue weight were calculated as % I.D. and % I.D./g-tissue weight, respectively.

[6] = In vitro metabolism rate by use of liver microsomes, mouse; format: in vitro ADME, Male CD1 mouse
Description: (§1) Liver microsomes (Pooled human Liver Microsomes, Male CD1 mouse, Male Wistar Rat), which is a commercial product of In Vitro Technologies, were employed.
(§2) Each of compound 23, compound 24, and [^125I]-IMPY was dissolved in Milli Q water, to thereby adjust the concentration to 11 μCi/mL (5 nmol/L).
(§3) To a mixture of 100 mM glucose 6-phosphate and […] NADPH solution, an equal volume of […] magnesium chloride was added. Glucose 6-phosphate dehydrogenase was employed at a final concentration of 10 unit/mL. These components were reconstituted upon use.
(§4) Method: To each of the glass test tubes, […] EDTA/0.33M potassium phosphate buffer (150 μL), Milli Q water (200 μL), 0.005 or 0.5 mg protein/mL microsome suspension (50 μL), and a test substance solution (50 μL) were added. The mixture was preliminarily incubated at 37° C. for two minutes. The above-prepared NADPH-generating system (50 μL) was added, to thereby initiate reaction. At an arbitrary point of time, an equal volume of acetonitrile was added, to thereby terminate the reaction. The reaction mixture (50 μL) was sampled into a glass tube for determining the metabolism amount, and saturated ascorbic acid ethanol solution (25 μL) was added thereto. The sample was developed by means of a reverse phase TLC (Whatman KC18F) with 80% methanol. The TLC was brought into contact with an imaging plate, and radioactivity was detected by means of BAS-1800 (product of Fuji Film Co., Ltd.). The metabolism rate was calculated through analysis by means of GraphPad Prism Ver. 4.00 (GraphPad Software, Inc.).

[7] = In vitro metabolism rate by use of liver microsomes, rat; format: in vitro ADME, Male Wistar Rat
Description: as §1, §2, §3, §4

[8] = In vitro metabolism rate by use of liver microsomes, human; format: in vitro ADME
Description: as §1, §2, §3, §4

[9] = human, in vivo; cited from earlier work
[10] = animal PET scanner; cited from earlier work
[11] = Analysis of radioactive substance in the rat brain after administration (TLC); format: in vivo; conditions: rat brain homogenate 2 to 120 minutes after administration (FIG. 5)
Description: Compounds which had been incorporated into the rat brain were investigated. The left part of the rat brain, obtained in the above experiment (distribution in the rat body) was homogenized by means of a Potter-type homogenizer with 40-mmol/L ascorbic acid-containing PBS (4-fold amount by mass). Acetonitrile (4-fold volume with respect to homogenate) was added to the homogenate, and the mixture was filtered, to thereby remove protein. The acetonitrile layer was developed by means of a reverse phase TLC (Whatman KC18F). The TLC was brought into contact with an imaging plate, and radioactivity was detected by means of BAS-1800 (product of Fuji Film Co., Ltd.). Each of the brain homogenate obtained 2, 5, 40, 60, and 120 minutes after administration was treated with acetonitrile so as to remove protein, and extracted radioactive substances were analyzed through thin-layer chromatography (KC18F, Whatman).

Amyloid β (1-40) peptide [12] = biological target: T1, Amyloid β (1-40) peptide; assay: Binding of compound 24 to amyloid β (1-40) aggregated in PBS or dissolved in purified water; conditions: for Specific binding radioactivity: amyloid β 50 nmol/L
Description: Separately, amyloid β (1-40) peptide HCl salt was dissolved in purified water, to thereby prepare a 100-μmol/L amyloid β (1-40) solution. A CD spectrum of each sample solution (twice diluted) was measured at room temperature (about 25° C.) in a wavelength range of 190 to 250 nm. PBS or purified water was measured as a blank. After measurement, a blank value was subtracted from a CD value of each sample, to thereby correct the base line. From the thus-corrected CD values, secondary structure analysis was performed by means of SELCON3.
Subsequently, binding ability of the compound of the invention to amyloid β (1-40) peptide dissolved in purified water or aggregated in PBS was determined in a manner similar to that employed in Test Example 3. However, a ^125I-labeled compound 24 was employed, and no rat bran homogenate was included. The employed amyloid β concentration was 50 nmol/L at reaction.

Sequence of Whole protein of human Alzheimer lesion origin (temporal cortex) (P05067 672-713): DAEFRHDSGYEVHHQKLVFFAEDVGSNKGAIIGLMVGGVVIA
T1 sequence (P05067 672-711 limits assumed): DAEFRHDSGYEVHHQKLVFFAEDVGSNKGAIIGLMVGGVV
Sequence of synthetic amyloid β (1-40) aggregates (P05067 672-711 limits assumed): as above
T2 sequence (P05067 672-711 limits assumed): as above

## 5-[4-(6-Iodoimidazo[1,2-a]pyridin-2-yl)phenyl]-1,3-oxazole [Example 1]
Amyloid β (1-40) peptide [1]
  IC50: 29400 nM
[2]; read-out: Inhibitory activity (n = 3) IC50 Mean ± S.D.
  IC50: 1.23 ± 0.0842 nM

## Ic1ccc2nc(-c3ccc(-c4cc[nH]n4)cc3)cn2c1 [Example 3, 6-Iodo-2-[4-(1H-3-pyrazolyl)phenyl]imidazo[1,2-a]pyridine]
Amyloid β (1-40) peptide [1]
  IC50: 22300 nM
[2]
  IC50: 9.72 ± 1.44 nM

## [125I]c1ccc2nc(-c3ccc(-c4cnco4)cc3)cn2c1 [Example 23, [^125I]5-[4-(6-Iodoimidazo[1,2-a]pyridin-2-yl)phenyl]-1,3-oxazole]
[3]
  Specific binding amount against β-sheet content of aggregate mixture: promoted in accordance with an increase in β-sheet content
[4]
  Bmax: 1.66 pmol/mg protein
[5]; 2 min after administration
  Radioactivity in the rat brain Mean ± SD: 1.268 ± 0.166 % I.D./g
[5]; 5 min after administration
  Radioactivity in the rat brain Mean ± SD: 1.124 ± 0.032 % I.D./g
[5]; 15 min after administration
  Radioactivity in the rat brain Mean ± SD: 0.584 ± 0.077 % I.D./g
[5]; 30 min after administration
  Radioactivity in the rat brain Mean ± SD: 0.273 ± 0.015 % I.D./g
[5]; 60 min after administration
  Radioactivity in the rat brain Mean ± SD: 0.139 ± 0.006 % I.D./g
[5]; 120 min after administration
  Radioactivity in the rat brain Mean ± SD: 0.083 ± 0.002 % I.D./g
[6]
  Rate of metabolism by liver microsomes: 0.480 ± 0.139 pmol/min/mg protein
[7]
  Rate of metabolism by liver microsomes: 0.632 ± 0.420 pmol/min/mg protein
[8]
  Rate of metabolism by liver microsomes: 0.944 ± 0.265 pmol/min/mg protein

## [11CH3]Nc1ccc(-c2nc3ccc(O)cc3s2)cc1 [^11C-PIB]
[9]
  Difference in retention between AD patient groups: at most about two-fold
[10]
  Retention time, PS1/APP mice against normal mice: no difference is observed in retention time

## CN(C)c1ccc(-c2cn3cc([125I])ccc3n2)cc1 [^125I-IMPY, reference compound]
[5]; 2 min after administration
  Radioactivity in the rat brain Mean ± SD: 1.110 ± 0.027 % I.D./g
[5]; 5 min after administration
  Radioactivity in the rat brain Mean ± SD: 0.713 ± 0.098 % I.D./g
[5]; 15 min after administration
  Radioactivity in the rat brain Mean ± SD: 0.337 ± 0.019 % I.D./g
[5]; 30 min after administration
  Radioactivity in the rat brain Mean ± SD: 0.144 ± 0.021 % I.D./g
[5]; 60 min after administration
  Radioactivity in the rat brain Mean ± SD: 0.065 ± 0.002 % I.D./g
[5]; 120 min after administration
  Radioactivity in the rat brain Mean ± SD: 0.027 ± 0.001 % I.D./g
[11]
  Metabolites in the brain (TLC of extracted radioactive substance): provided a plurality of metabolites in the brain
[6]
  Rate of metabolism by liver microsomes: 0.911 ± 0.331 pmol/min/mg protein
[7]
  Rate of metabolism by liver microsomes: 2.164 ± 0.647 pmol/min/mg protein
[8]
  Rate of metabolism by liver microsomes: 0.510 ± 0.137 pmol/min/mg protein

## [^125I]6-Iodo-2-[4-(1H-3-pyrazolyl)phenyl]imidazo[1,2-a]pyridine [Example 24]
Amyloid β (1-40) peptide [12]; Solution of amyloid β (1-40) dissolved in purified water
  Specific binding radioactivity: 6300.3 cpm
Amyloid β (1-40) peptide [12]; Suspension of amyloid β (1-40) aggregated in PBS
  Specific binding radioactivity: 125504.4 cpm
Amyloid β (1-40) peptide [12]; ratio suspension in PBS / solution in purified water
  Specific binding to aggregates (suspension) relative to dissolved amyloid β (1-40) (solution): about 20 times
[4]
  Bmax: 1.59 pmol/mg protein
[4]; 125I-labeled test compound 0.5 nmol/L
  Kd: 4.05 nM
[5]; 2 min after administration
  Radioactivity in the rat brain Mean ± SD: 0.760 ± 0.036 % I.D./g
[5]; 5 min after administration
  Radioactivity in the rat brain Mean ± SD: 0.656 ± 0.026 % I.D./g
[5]; 15 min after administration
  Radioactivity in the rat brain Mean ± SD: 0.373 ± 0.047 % I.D./g
[5]; 30 min after administration
  Radioactivity in the rat brain Mean ± SD: 0.176 ± 0.009 % I.D./g
[5]; 60 min after administration
  Radioactivity in the rat brain Mean ± SD: 0.053 ± 0.003 % I.D./g
[5]; 120 min after administration
  Radioactivity in the rat brain Mean ± SD: 0.015 ± 0.002 % I.D./g
[6]
  Rate of metabolism by liver microsomes: 0.229 ± 0.061 pmol/min/mg protein
[7]
  Rate of metabolism by liver microsomes: 0.193 ± 0.058 pmol/min/mg protein
[8]
  Rate of metabolism by liver microsomes: 0.140 ± 0.057 pmol/min/mg protein
